Source: patent US11833139B2 (priority 2019, dated 2023)
Values after ≈ are worked out from the molar mass of the structure shown. Read-outs that look alike come from different tables or passages of the source.

How the values were obtained:
A. baumannii UNT091 [1] = assay: MIC by broth microdilution (CLSI), carbapenem-resistant clinical isolate UNT091; assay type: cell-based, Acinetobacter baumannii; details: Acinetobacter baumannii, read-out: MIC
Protocol: Two A. baumannii isolates were used in this example: HUMC1 (BV374) (Spellberg/Luna Laboratory, University of Southern California, Los Angeles, Calif.) and UNT091-1 (BV378) (UNT Health Science Center, Fort Worth, Tex.). The HUMC1 isolate is a hyper-virulent drug-resistant clinical strain isolated from a blood-stream infection. […] The isolates were stored at −80° C. as 20% (v/v) glycerol cultures.
MICs were determined by the broth microdilution method following the guidelines of the Clinical Laboratory Standards Institute (CLSI) using RPMI supplemented with […] cationic-adjusted Muller Hinton broth (CA-MHB) as assay medium. To prepare the bacterial inocula, 3-5 colonies of bacterial strains from over-night growth on ChromAgar orientation plates (CHROMagar Cat. No. RT412) were suspended in 5 mL saline. The turbidity of the bacterial suspension was adjusted to 0.5 McFarland units (equal to an optical density at 610 nm (OD610) to 0.08-0.1). This suspension was diluted 200-fold in RPMI supplemented with 10% (v/v) FCS to reach a final concentration of […] colony forming units (CFU)/mL and was used to inoculate the microtiter plates.
Serial 2-fold dilutions of the antibiotics were prepared in a separate 96-well plate polypropylene U-bottom plate (Ratiolab Cat. No. 6018111) in RPMI supplemented with 10% (v/v) FCS at 10-fold of the final test concentrations and 10 μl of the dilutions were transferred to new 96-well polystyrene U-bottom microtiter plates with a parafilm plate cover.
The plates were then inoculated with 90 μL per well of the prepared bacterial suspensions in using a multichannel pipette (Eppendorf), with the first column containing 4 wells each for growth control (no antibiotic). […] The MIC was recorded as the lowest concentration of the compound that inhibited bacterial growth by visual inspection. MICs were determined at least in duplicates and in the case of variations, the higher values are provided.

A. baumannii ACC00445 [2] = system: A. baumannii ACC00445
Protocol: (§1) A. baumannii clinical isolates were stored at −80° C. as 20% (v/v) in glycerol stock cultures.
(§2) Selective agar plates were prepared using RPMI powder (Sigma R7755) dissolved at 10.3 g/L with agar at 15 g/L and boiled until complete agar melting. After cooling the media to 45° C., 0.3 g/L L-glutamine (Sigma G7513), 25 mM HEPES (Gibco 15630-056) and 10% (v/v) FCS (Gibco 10500-064) were added.
(§3) The culture inocula were prepared from a bacterial NaCl suspension at 0.5 McFarland diluted 200-times in 100 mL of RPMI (Sigma R8758)+10% FCS in 500 mL flasks to reach ˜5×10^5 CFU/mL. The flasks were incubated for 24 h at 37° C. under shaking at 220 rpm. After incubation, the cells were pelleted by centrifugation (10 min, 7000 rpm at RT) and re-suspended in 1 mL PBS. […] After incubation at 35° C. for 24 h colonies were counted, and the frequency of resistance was calculated as the ratio between the number of colonies growing on plates with antibiotic and the total colony count of the inocula.

A. baumannii HUMC-1 = details: HUMC-1, rifabutin 0.1 mg/L
Protocol: as §1, §2, §3

A. baumannii LAC-4 = system: A. baumannii LAC-4
Protocol: as §1, §2, §3

A. baumannii UNT091 [3] = system: A. baumannii UNT091
Protocol: as §1, §2, §3

[4] = system: five clinical A. baumannii strains; details: rifabutin concentrations of ≥2 mg/L
Protocol: as §1, §2, §3

A. baumannii ACC00445 [5] = assay: Neutropenic sepsis mouse model (CD-1 mice, IP infection); assay type: in vivo; details: IV at 1 h and 5 h post-infection, 1 mg/kg
Description: The CD-1 mice were IP infected with A. baumannii ACC00445 strain in the presence of […].

A. baumannii UNT091 [6] = assay: Neutropenic lung infection mouse model (CD-1 mice, intranasal infection); assay type: in vivo; details: UNT091, IV at 2 h post-infection, 24 hours of treatment, doses of <0.5 mg/kg
Protocol: (§4) After 24 hours of treatment the mice were sacrificed and colony forming units in the lungs were measured.

A. baumannii UNT093 = assay: as above; assay type: in vivo; details: UNT093, IV at 2 h post-infection, 24 hours of treatment, doses of <0.5 mg/kg
Protocol: as §4

A. baumannii = assay: Dose fractionation in a neutropenic mouse model of infection; assay type: in vivo; details: IV q24 h, q12 h or q6 h
Description: FIG. 5 summarizes the results of dose fractionation experiments in a neutropenic mouse model of infection.

[7] = system: A. baumannii UNT091-1 ΔfhuE mutant; assay: Neutropenic lung infection in CD-1 mice, wildtype versus ΔfhuE mutant; assay type: in vivo; details: mice infected with UNT091-1::ΔfhuE, single IV dose at 2 h, burden at 26 hours
Protocol: FIG. 6 is a graph showing CFU per lung pair in mice inoculated with A. baumannii strains. Neutropenic, female CD-1 mice (5 per group) were inoculated intranasally (t=0 hr) with equivalent titers (6.90 and 6.93 log10 CFU) of A. baumannii UNT091-1 wildtype and A. baumannii UNT091-1 ΔfhuE mutant. The treatment (single IV dose) was administered at 2-hour post-infection and bacterial burden was reported at 26 hours by determining CFU/lung. Furthermore, the effect of RBT was blunted in mice infected with the UNT091-1::ΔfhuE strain supporting the role of fhuE as mediating RBT sensitivity both in vitro and in vivo.

[8] = system: A. baumannii ATCC-17978 expressing FhuE V38P; assay: Complementation assay, plasmid mediated expression of FhuE variants in CA-MHB; assay type: cell-based; details: ATCC-17978 host, 1 mM IPTG
Description: See, Cadieux, N., Bradbeer, C. & Kadner, R. J. Sequence changes in the ton box region of BtuB affect its transport activities and interaction with TonB protein. J. Bacteriol. 182, 5954-5961 (2000); Funahashi, T. et al. Identification and characterization of an outer membrane receptor gene in Acinetobacter baumannii required for utilization of desferricoprogen, rhodotorulic acid, and desferrioxamine B as xenosiderophores. Biol. Pharm. Bull. 35, 753-760 (2012); the content of each of which is incorporated herein by reference.

## CO[C@H]1/C=C/O[C@@]2(C)Oc3c(C)c(O)c4c(c3C2=O)C2=NC3(CCN(CC(C)C)CC3)NC2=C(NC(=O)/C(C)=C\C=C\[C@H](C)[C@H](O)[C@@H](C)[C@@H](O)[C@@H](C)[C@H](OC(C)=O)[C@@H]1C)C4=O [rifabutin]
A. baumannii UNT091 [1]; UNT091, UNT091, CA-MHB (Table 1)
  MIC: 8000 ng/mL (≈ 9.44 µM)
A. baumannii UNT091 [1]; UNT091, UNT091, RPMI plus 10% FCS (Table 1)
  MIC: 2 ng/mL
A. baumannii UNT091 [1]; UNT091, UNT091 parental strain, RPMI + 10% FCS (Table 2)
  MIC: 2 ng/mL
A. baumannii ACC00445 [2]; ACC00445, rifabutin 0.02 mg/L
  Frequency of Mutational Resistance (FoR): 1.10E−05
A. baumannii ACC00445 [2]; ACC00445, rifabutin 0.2 mg/L
  Frequency of Mutational Resistance (FoR): 8.10E−06
A. baumannii ACC00445 [2]; ACC00445, rifabutin 2 mg/L
  Frequency of Mutational Resistance (FoR): 2.40E−09
A. baumannii ACC00445 [2]; ACC00445, rifabutin 20 mg/L
  Frequency of Mutational Resistance (FoR): 5.70E−09
A. baumannii HUMC-1
  Frequency of Mutational Resistance (FoR): 1.70E−05
A. baumannii LAC-4; LAC-4, rifabutin 0.2 mg/L
  Frequency of Mutational Resistance (FoR): 7.00E−05
A. baumannii LAC-4; LAC-4, rifabutin 2 mg/L
  Frequency of Mutational Resistance (FoR): 5.00E−09
A. baumannii LAC-4; LAC-4, rifabutin 20 mg/L
  Frequency of Mutational Resistance (FoR): 4.20E−09
A. baumannii UNT091 [3]; UNT091, rifabutin 0.02 mg/L
  Frequency of Mutational Resistance (FoR): 7.80E−06
A. baumannii UNT091 [3]; UNT091, rifabutin 0.2 mg/L
  Frequency of Mutational Resistance (FoR): 6.40E−06
A. baumannii UNT091 [3]; UNT091, rifabutin 2 mg/L
  Frequency of Mutational Resistance (FoR): 7.10E−09
A. baumannii UNT091 [3]; UNT091, rifabutin 20 mg/L
  Frequency of Mutational Resistance (FoR): 7.80E−09
[4]
  frequency of mutational resistance: ~10^−9
A. baumannii ACC00445 [5]
  protection against sepsis: protects against sepsis
A. baumannii UNT091 [6]
  effect on colony forming units in the lungs: potent effect
A. baumannii UNT093
  effect on colony forming units in the lungs: potent effect
A. baumannii
  dose fractionation result: clear dose response relationship
[7]
  effect on bacterial burden (CFU/lung): blunted
[8]
  restoration of potent activity by FhuE V38P expression compared to wildtype FhuE: not able to restore rifabutin potent activity
